Reference: ChEMBL document CHEMBL3885881, “DrugMatrix”

Species on record: Rattus norvegicus
Assay: DrugMatrix - Regimen: Daily Repeat
Format: toxicity, organism-based, Sprague-Dawley
Set-up: regimen Daily Repeat, gender Male, age 6-8 weeks
Conditions: in vivo, po, route oral GAVAGE, vehicle .5 % CMC; for TOTAL PROTEIN / ALKALINE PHOSPHATASE / ASPARTATE AMINOTRANSFERASE / BLOOD UREA NITROGEN / CHLORIDE / CHOLESTEROL / CREATINE PHOSPHOKINASE / CREATININE / GLUCOSE / PHOSPHORUS / POTASSIUM / SODIUM / TOTAL BILIRUBIN / ALANINE AMINOTRANSFERASE: tissue Plasma; for ABSOLUTE BASOPHIL / BASOPHIL / EOSINOPHIL / ERYTHROCYTE COUNT / HEMATOCRIT / HEMOGLOBIN / LEUKOCYTE COUNT / LYMPHOCYTE / MEAN CORPUSCULAR HEMOGLOBIN / MEAN CORPUSCULAR HEMOGLOBIN CONCENTRATION / MEAN CORPUSCULAR VOLUME / MONOCYTE / NEUTROPHIL / PLATELET COUNT: tissue Blood
[1] = 20 mg/kg, 120 h, dose level Low, time 5 day
[2] = 89 mg/kg, 72 h, dose level High, time 3 day
[3] = 89 mg/kg, 120 h, dose level High, time 5 day

## CC(C(=O)O)c1ccc2oc(-c3ccc(Cl)cc3)nc2c1 (centres undefined) [BENOXAPROFEN]
20 mg/kg, 72 h, dose level Low, time 3 day
  TOTAL PROTEIN: 5.7 G/DL
[1]
  ABSOLUTE BASOPHIL: 56.7 cells/µL
  BASOPHIL: 0.6%
  EOSINOPHIL: 0.53%
  ERYTHROCYTE COUNT: 7.47 x10E6/uL
  HEMATOCRIT: 48.6%
  HEMOGLOBIN: 15.37 G/DL
  LEUKOCYTE COUNT: 8.81 x10E3/uL
  LYMPHOCYTE: 79.3%
  MEAN CORPUSCULAR HEMOGLOBIN: 20.53 pg
  MEAN CORPUSCULAR HEMOGLOBIN CONCENTRATION: 31.57 G/DL
  MEAN CORPUSCULAR VOLUME: 65.03 fL
  MONOCYTE: 2.53%
  NEUTROPHIL: 15.73%
  PLATELET COUNT: 1097 x10E3/uL
  ALKALINE PHOSPHATASE: 357.67 u/L
  ASPARTATE AMINOTRANSFERASE: 65 u/L
  BLOOD UREA NITROGEN: 13.33 mg/dL
  CHLORIDE: 104.67 MEQ/L
  CHOLESTEROL: 59.33 mg/dL
  CREATINE PHOSPHOKINASE: 158.33 u/L
  CREATININE: 0.43 mg/dL
  GLUCOSE: 175.33 mg/dL
  PHOSPHORUS: 12.03 mg/dL
  POTASSIUM: 7.37 MEQ/L
  SODIUM: 150.67 MEQ/L
  TOTAL BILIRUBIN: 0.33 mg/dL
  TOTAL PROTEIN: 6.43 G/DL
[2]
  ABSOLUTE BASOPHIL: 46.7 cells/µL
  BASOPHIL: 0.87%
  EOSINOPHIL: 0.43%
  ERYTHROCYTE COUNT: 5.74 x10E6/uL
  HEMATOCRIT: 35.5%
  HEMOGLOBIN: 11.63 G/DL
  LEUKOCYTE COUNT: 4.56 x10E3/uL
  LYMPHOCYTE: 64.07%
  MEAN CORPUSCULAR HEMOGLOBIN: 20.27 pg
  MEAN CORPUSCULAR HEMOGLOBIN CONCENTRATION: 32.8 G/DL
  MEAN CORPUSCULAR VOLUME: 61.93 fL
  MONOCYTE: 4.3%
  NEUTROPHIL: 29.23%
  PLATELET COUNT: 1116 x10E3/uL
  ALANINE AMINOTRANSFERASE: 30.67 u/L
  ALKALINE PHOSPHATASE: 216.33 u/L
  ASPARTATE AMINOTRANSFERASE: 71 u/L
  BLOOD UREA NITROGEN: 13 mg/dL
  CHLORIDE: 105 MEQ/L
  CHOLESTEROL: 81 mg/dL
  CREATINE PHOSPHOKINASE: 293 u/L
  CREATININE: 0.37 mg/dL
  GLUCOSE: 179 mg/dL
  PHOSPHORUS: 11.33 mg/dL
  POTASSIUM: 6.47 MEQ/L
  SODIUM: 142.33 MEQ/L
  TOTAL BILIRUBIN: 0.33 mg/dL
  TOTAL PROTEIN: 4.93 G/DL
[3]
  ABSOLUTE BASOPHIL: 80 cells/µL
  BASOPHIL: 0.75%
  EOSINOPHIL: 0.5%
  ERYTHROCYTE COUNT: 3.39 x10E6/uL
  HEMATOCRIT: 21.15%
  HEMOGLOBIN: 6.75 G/DL
  LEUKOCYTE COUNT: 9.48 x10E3/uL
  LYMPHOCYTE: 62%
  MEAN CORPUSCULAR HEMOGLOBIN: 20.05 pg
  MEAN CORPUSCULAR HEMOGLOBIN CONCENTRATION: 32.38 G/DL
  MEAN CORPUSCULAR VOLUME: 61.98 fL
  MONOCYTE: 3.5%
  NEUTROPHIL: 36%
  PLATELET COUNT: 1019.25 x10E3/uL
  ALANINE AMINOTRANSFERASE: 205.75 u/L
  ALKALINE PHOSPHATASE: 329.75 u/L
  ASPARTATE AMINOTRANSFERASE: 292.5 u/L
  BLOOD UREA NITROGEN: 38.75 mg/dL
  CHLORIDE: 103.5 MEQ/L
  CHOLESTEROL: 101 mg/dL
  CREATINE PHOSPHOKINASE: 255.75 u/L
  CREATININE: 0.33 mg/dL
  GLUCOSE: 163.25 mg/dL
  PHOSPHORUS: 10.22 mg/dL
  POTASSIUM: 5.38 MEQ/L
  SODIUM: 143.25 MEQ/L
  TOTAL BILIRUBIN: 0.42 mg/dL
  TOTAL PROTEIN: 4.65 G/DL
